In patent US20240043420A1, “7-AZAINDOLE COMPOUNDS FOR INHIBITION OF BCR-ABL TYROSINE KINASES” (EnLiven Therapeutics, Inc., priority 2020, published 2024):

Experiments:
[1] = tested on: K562 cells; experiment: K562 cell proliferation assay (CellTiter-Glo); assay type: cell-based; details: Homo sapiens, K562, 72 h, CellTiter-Glo viability, read-out: Cell Line (IC50, nM) K562
Summary of the method: (§1)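 Cells in IMDM/10% FBS seeded at 2,000 (K562) or 1,500 (HL60) per well, exposed to serially diluted compounds for 72 h at 37 °C, 5% CO2. Viability by CellTiter-Glo luminescence, normalized between DMSO (high) and cell-free media (low) controls.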

[2] = biological target: T1, ABL1 (Homo sapiens, UniProt P00519); experiment: Luminescence-based ABL kinase assay (ADP-Glo, 300 μM ATP); assay type: biochemical
T1 construct: purchased Carna Biosciences
Summary of the method: (§2)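 Buffer: 50 mM HEPES pH 7.5, 10 mM MgCl2, 1 mM EGTA, 2 mM DTT, 0.05% BSA. Compound preincubated 30 min at RT with kinase (3.325 nM in enzyme solution), then started with a Peptide 2 (6 μM) and ATP (1.2 mM) solution, both stock levels; 90 min at RT.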

[3] = biological target: ABL1 (T315I) (Homo sapiens, UniProt P00519, T315I); experiment: Luminescence-based ABL kinase assay (ADP-Glo, 300 μM ATP), T315I mutant; assay type: biochemical
Summary of the method: as §2

[4] = tested on: pCRKL in K562 cells; experiment: pCRKL ELISA assay in K562 cells; assay type: cell-based; details: Homo sapiens, 1.5 h, 90 minutes incubation, read-out: PCRKL ELISA, Cell Line IC50 (nM) K562
Description: (§3) K562 or Ba/F3 ABL T315I cells (2.0*10^5 cells/100 μl/well) were seeded in 96 well (Corning, cat #3799). Compounds were dissolved in DMSO, serially diluted in DMSO and then were added, mixed, and incubated for 90 minutes at 37° C., 5% CO2. Following the 90-minute incubation, plates were centrifuged for 5 min at 3000 RPM and supernatant was removed from each well. Cells were washed 3 times with 150 μl PBS prior to addition of 100 μl cell RIPA lysis buffer (Boston BioProducts, cat #BP-115D) supplied with 1×complete ULTRA cocktail inhibitor (Roche, 05892791001) and 1×PhosSTOP Phosphatase Inhibitor Cocktail Tablets (Roche, 04906837001). Cells were incubated with lysis buffer for 1 hour at 4° C. prior to storage at −80 C.
(§4) A capture antibody able to detect phosphorylated and non-phosphorylated CRKL (R&D Systems, cat #AF5127) was added to Meso Scale Discovery (MSD) standard bind plates (MSD, cat #L15XA-3) at 5 ug/mL and incubated at 4° C. overnight. The next day, plates were washed with PBS+0.05% Tween20 (PBST) and 150 μl of 5% BSA blocking solution was added for 1 hour at room temperature with shaking. Plates were washed with PBST. Lysates were thawed and 30 μl of lysate was added to the MSD plates and incubated for 2 hours at room temperature with shaking. MSD plates were washed with PBST and 30 μl of a detection antibody that binds phosphorylated pCRKL (R&D Systems, cat #MAB6910) was added at 1 μg/mL to each well. Plates were incubated for 1 hour at room temperature with shaking. Plates were washed with PBST prior to addition of 30 μl of a sulfo tagged goat anti mouse detection antibody (MSD cat #R32AC-1). Plates were incubated for 1 hour at room temperature with shaking. Plates were washed with PBST prior to addition of 150 ul of 1×MSD read buffer T (MSD, cat 4R92TC-2). Electrochemiluminescence (ECLU) was read on an MSD plate reader (Meso Scale Discovery). The remaining activity by calculated as follows: 00 Relative activity=100×(ELCUsample−ECLULC)/(ECLUHC−ECLULC). The low and high controls (LC/HC) are generated from lysate from wells without cells or with cells treated with 0.1% DMSO, respectively. IC50 values were calculated using XLFit software using a nonlinear regression model with a sigmoidal dose response and are shown in Table 4 and Table 5 below.

[5] = tested on: pCRKL in Ba/F3 ABL1 (T315I) cells; experiment: pCRKL ELISA assay in Ba/F3 ABL T315I cells; assay type: cell-based; details: Mus musculus, BaF3, 1.5 h, 90 minutes incubation, read-out: pCRKL ELISA, Cell Line IC50 (nM) Ba/F3 ABL1 (T315I)
Description: as §3, §4

[6] = tested on: HL60 cells; experiment: HL60 cell proliferation assay (CellTiter-Glo); assay type: cell-based; details: Homo sapiens, HL-60, 72 h, CellTiter-Glo viability, read-out: Cell Line (IC50, nM) HL60
Summary of the method: as §1

| Compound | IC50 [1] | IC50 [2] | IC50 [3] | IC50 [4] | IC50 [5] | IC50 [6] |
| --- | --- | --- | --- | --- | --- | --- |
| COc1cccc(OC)c1-c1c[nH]c2nc(NC(=O)C3CC3CN3CCNCC3)ccc12 (single isomer, unassigned) [Example S150, Enantiomer 1, N-[3-(2,6-dimethoxyphenyl)-1H-pyrrolo[2,3-b]pyridin-6-yl]-2-(piperazin-1-ylmethyl)cyclopropane-1-carboxamide] | 40.5 nM | 5.42 nM | 1.73 nM | 453 nM | 1460 nM |  |
| COc1ccccc1-c1n[nH]c2nc(NC(=O)[C@@H]3C[C@@H]3F)ccc12 [Compound 54, (1S,2S)-2-fluoro-N-[3-(2-methoxyphenyl)-1H-pyrazolo[3,4-b]pyridin-6-yl]cyclopropane-1-carboxamide] | 88.4 nM | 14.3 nM | 16.3 nM | 95.8 nM | 198 nM | > 10000 nM |
| COc1c(-c2c[nH]c3nc(NC(=O)[C@@H]4C[C@@H]4F)ccc23)cc(F)c2[nH]cnc12 [Compound 95, (1S,2S)-2-fluoro-N-(3-(7-fluoro-4-methoxy-1H-benzo[d]imidazol-5-yl)-1H-pyrrolo[2,3-b]pyridin-6-yl)cyclopropanecarboxamide] | 221 nM | 6.32 nM | 2.14 nM | 656 nM | 429 nM | > 10000 nM |
| COc1ccc(F)cc1-c1n[nH]c2nc(NC(=O)[C@@H]3C[C@@H]3F)ccc12 [Compound 98, (1S,2S)-2-fluoro-N-[3-(5-fluoro-2-methoxyphenyl)-1H-pyrazolo[3,4-b]pyridin-6-yl]cyclopropane-1-carboxamide] | 106 nM | 16.4 nM | 12.9 nM | 174 nM | 241 nM | > 10000 nM |
| COc1ncc(F)c(OC)c1-c1c[nH]c2nc(NC(=O)NCCN3CCN(C)CC3)ccc12 [Compound 116, 3-[3-(5-fluoro-2,4-dimethoxypyridin-3-yl)-1H-pyrrolo[2,3-b]pyridin-6-yl]-1-[2-(4-methylpiperazin-1-yl)ethyl]urea] | 142 nM | 49.4 nM | 59.3 nM |  | 1060 nM | > 10000 nM |
| COc1cccc(OC)c1-c1c[nH]c2nc(NC(=O)NCCN3CCN(C)CC3)ccc12 [Compound 117, 3-[3-(2,6-dimethoxyphenyl)-1H-pyrrolo[2,3-b]pyridin-6-yl]-1-[2-(4-methylpiperazin-1-yl)ethyl]urea] | 67.1 nM | 11.3 nM | 9.08 nM |  | 124 nM | > 10000 nM |
| COc1cccc(OC)c1-c1c[nH]c2nc(NC(=O)NCCCN(C)C)ccc12 [Compound 131, 1-[3-(2,6-dimethoxyphenyl)-1H-pyrrolo[2,3-b]pyridin-6-yl]-3-[3-(dimethylamino)propyl]urea] | 83.3 nM | 42.7 nM | 28.1 nM | 272 nM |  | > 10000 nM |
| COc1cccc(OC)c1-c1c[nH]c2nc(NC(=O)NCCN3CCNCC3)ccc12 [Compound 135, 3-[3-(2,6-dimethoxyphenyl)-1H-pyrrolo[2,3-b]pyridin-6-yl]-1-[2-(piperazin-1-yl)ethyl]urea] | 165 nM | 24.9 nM | 15.8 nM | 1210 nM |  | > 10000 nM |
| COc1ccc(F)c(OC)c1-c1c[nH]c2nc(NC(=O)NCCN3CCN(C)CC3)ccc12 [Compound 145, 3-[3-(3-fluoro-2,6-dimethoxyphenyl)-1H-pyrrolo[2,3-b]pyridin-6-yl]-1-[2-(4-methylpiperazin-1-yl)ethyl]urea] | 120 nM | 51.6 nM | 44.3 nM | 399 nM |  | > 10000 nM |
| COc1cc2ncsc2c(F)c1-c1c[nH]c2nc(NC(=O)[C@@H]3C[C@@H]3F)ccc12 [Compound 147, (1S,2S)-2-fluoro-N-(3-(7-fluoro-5-methoxybenzo[d]thiazol-6-yl)-1H-pyrrolo[2,3-b]pyridin-6-yl)cyclopropane-1-carboxamide] | 16.1 nM | 5.54 nM | 1.71 nM | 35.7 nM | 35.7 nM | > 10000 nM |

Now from value to compound:

| IC50 [1] | IC50 [2] | IC50 [3] | IC50 [4] | IC50 [5] | IC50 [6] | Compound |
| --- | --- | --- | --- | --- | --- | --- |
| 156 nM | 29 nM | 20.2 nM | 164 nM | 183 nM | > 10000 nM | COc1ncccc1-c1c[nH]c2nc(NC(=O)[C@@H]3C[C@@H]3F)ccc12 [Compound 27, (1S,2S)-2-fluoro-N-(3-(2-methoxypyridin-3-yl)-1H-pyrrolo[2,3-b]pyridin-6-yl)cyclopropane-1-carboxamide] |
| 54.6 nM | 15.1 nM | 17.6 nM | 86.3 nM | 162 nM | > 10000 nM | COc1ccnc(OC)c1-c1c[nH]c2nc(NC(=O)[C@@H]3C[C@@H]3F)ccc12 [Compound 75, (1S,2S)—N-[3-(2,4-dimethoxypyridin-3-yl)-1H-pyrrolo[2,3-b]pyridin-6-yl]-2-fluorocyclopropane-1-carboxamide] |
| 35.8 nM | 5.14 nM | 7.38 nM | 65.4 nM | 50.1 nM | > 10000 nM | COc1ncc(F)c(OC)c1-c1c[nH]c2nc(NC(=O)[C@@H]3C[C@@H]3F)ccc12 [Compound 76, (1S,2S)-2-fluoro-N-[3-(5-fluoro-2,4-dimethoxypyridin-3-yl)-1H-pyrrolo[2,3-b]pyridin-6-yl]cyclopropane-1-carboxamide] |
| 30.5 nM | 5.97 nM | 5.48 nM |  | 84.2 nM | > 10000 nM | COc1cc2ncsc2cc1-c1c[nH]c2nc(NC(=O)[C@@H]3C[C@@H]3F)ccc12 [Compound 86, (1S,2S)-2-fluoro-N-(3-(5-methoxybenzo[d]thiazol-6-yl)-1H-pyrrolo[2,3-b]pyridin-6-yl)cyclopropane-1-carboxamide] |
| 9.36 nM | 3.57 nM | 6.1 nM | 278 nM |  | 4040 nM | COc1c(-c2c[nH]c3nc(NC(=O)[C@@H]4C[C@@H]4F)ccc23)cc2scnc2c1F [Compound 133, (1S,2S)-2-fluoro-N-[3-(4-fluoro-5-methoxy-1,3-benzothiazol-6-yl)-1H-pyrrolo[2,3-b]pyridin-6-yl]cyclopropane-1-carboxamide] |
| 9.9 nM | 3.74 nM | 14 nM | 32 nM | 112 nM | > 10000 nM | COc1nc2ncsc2cc1-c1c[nH]c2nc(NC(=O)[C@@H]3C[C@@H]3F)ccc12 [Compound 146, (1S,2S)-2-fluoro-N-(3-[5-methoxy-[1,3]thiazolo[4,5-b]pyridin-6-yl]-1H-pyrrolo[2,3-b]pyridin-6-yl)cyclopropane-1-carboxamide] |
